Data set [1] concerns the target Matrilysin (Homo sapiens) (UniProt P09237). Kind of data set: Peptidase, Matrix Metalloproteinase-7 (MMP-7) Eurofins-Panlabs enzyme assay. More on the design: substrate with concentration. The following applies: Compound concentration 10.0 uM.
For data set [2], the target named is Polyunsaturated fatty acid 5-lipoxygenase (Homo sapiens) (UniProt P09917). Kind of data set: Lipoxygenase 5-LO Eurofins-Panlabs enzyme assay. Conditions: Compound concentration 10.0 uM; call rule not given here.
Sequence of Polyunsaturated fatty acid 5-lipoxygenase (Homo sapiens) (P09917 whole entry): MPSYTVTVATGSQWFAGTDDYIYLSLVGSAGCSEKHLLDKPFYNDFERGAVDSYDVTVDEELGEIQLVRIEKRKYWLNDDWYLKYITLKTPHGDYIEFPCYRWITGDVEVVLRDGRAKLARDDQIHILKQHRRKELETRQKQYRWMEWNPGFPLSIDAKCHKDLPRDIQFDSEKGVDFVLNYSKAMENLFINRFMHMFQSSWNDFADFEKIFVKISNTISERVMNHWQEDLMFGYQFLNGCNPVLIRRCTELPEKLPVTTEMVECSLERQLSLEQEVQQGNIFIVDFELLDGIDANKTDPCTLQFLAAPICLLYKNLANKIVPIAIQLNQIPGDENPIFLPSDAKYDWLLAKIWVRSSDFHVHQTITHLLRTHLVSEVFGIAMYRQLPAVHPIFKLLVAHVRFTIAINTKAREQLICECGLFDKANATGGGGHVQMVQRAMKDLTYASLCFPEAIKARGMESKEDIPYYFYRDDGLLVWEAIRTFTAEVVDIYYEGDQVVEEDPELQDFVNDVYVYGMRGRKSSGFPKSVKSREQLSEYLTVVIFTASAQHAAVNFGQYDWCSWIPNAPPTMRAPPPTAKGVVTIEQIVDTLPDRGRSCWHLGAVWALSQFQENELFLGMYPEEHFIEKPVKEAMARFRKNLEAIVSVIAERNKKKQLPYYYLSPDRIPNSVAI
The target of a further data set is MAO-B (Homo sapiens, UniProt P27338). Kind of data set: Inhibition of Monoamine Oxidase MAO-B at compound concentration of 10.0 uM in the Eurofins-Panlabs enzyme assay (Eurofins_assay_140120). On the set-up: substrate with concentration 50 uM Kynuramine, incubation time 60 min, incubation temperature 37 C. Conditions: recombinant human MAO-B expressed in insect Hi5 cells, probe Kynuramine, 50 uM, compound concentration 10 uM.

Data set [3] deals with 5-hydroxytryptamine receptor 5A (Homo sapiens) (UniProt P47898). Conditions: Compound concentration 10.0 uM.
Sequence of 5-hydroxytryptamine receptor 5A (Homo sapiens) (P47898 whole entry): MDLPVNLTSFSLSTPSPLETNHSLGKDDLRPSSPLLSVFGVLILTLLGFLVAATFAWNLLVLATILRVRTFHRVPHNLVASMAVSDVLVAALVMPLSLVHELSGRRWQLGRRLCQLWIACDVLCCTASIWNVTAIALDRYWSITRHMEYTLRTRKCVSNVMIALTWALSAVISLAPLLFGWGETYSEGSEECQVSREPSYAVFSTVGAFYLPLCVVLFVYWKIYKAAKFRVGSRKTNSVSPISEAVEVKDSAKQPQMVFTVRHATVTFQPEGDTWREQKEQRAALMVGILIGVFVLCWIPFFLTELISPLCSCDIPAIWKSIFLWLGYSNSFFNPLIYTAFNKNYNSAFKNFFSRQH
For data set [4], the target named is Collagenase 3 (Homo sapiens) (UniProt P45452). Kind of data set: Peptidase, Matrix Metalloproteinase-13 (MMP-13) Eurofins-Panlabs enzyme assay. The following applies: Compound concentration 10.0 uM. More on the design: substrate with concentration.
Data set [5] concerns the target 5-hydroxytryptamine receptor 7 (Homo sapiens) (UniProt P34969). Conditions: Compound concentration 10.0 uM.
In data set [6] the target is Epidermal growth factor receptor (Homo sapiens) (UniProt P00533). Kind of data set: Protein Tyrosine Kinase, EGF Receptor Eurofins-Panlabs enzyme assay. The following applies: Compound concentration 10.0 uM. More on the design: substrate with concentration 10 µg/mL Poly(Glu:Tyr), incubation time 60 min, incubation temperature 25 °C.
The next data set is filed under the species Canis lupus familiaris. Kind of data set: ATPase, Na+/K+ Eurofins-Panlabs enzyme assay. Conditions: Compound concentration 10.0 uM.
The target in data set [7] is T1, 5-hydroxytryptamine receptor 3A (Homo sapiens) (UniProt P46098).
T1 sequence (whole entry): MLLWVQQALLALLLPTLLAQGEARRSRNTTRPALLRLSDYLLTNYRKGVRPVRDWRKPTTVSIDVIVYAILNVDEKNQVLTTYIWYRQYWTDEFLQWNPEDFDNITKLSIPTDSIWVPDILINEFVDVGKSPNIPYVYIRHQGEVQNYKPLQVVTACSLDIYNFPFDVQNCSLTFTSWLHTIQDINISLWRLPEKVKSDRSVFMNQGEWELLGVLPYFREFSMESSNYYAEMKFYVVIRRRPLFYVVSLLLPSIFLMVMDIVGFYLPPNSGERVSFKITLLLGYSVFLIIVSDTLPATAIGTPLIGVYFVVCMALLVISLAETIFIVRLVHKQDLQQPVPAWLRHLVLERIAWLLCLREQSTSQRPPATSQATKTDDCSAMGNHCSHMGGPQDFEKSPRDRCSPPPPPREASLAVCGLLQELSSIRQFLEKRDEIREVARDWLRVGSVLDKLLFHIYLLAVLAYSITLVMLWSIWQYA
Kind of data set: Inhibition of Serotonin (5-Hydroxytryptamine) 5-HT3 at 10 µM in the Eurofins-Panlabs radioligand binding assay (Eurofins_assay_271910). More on the design: ligand concentration 0.69 nM. Conditions: Compound concentration 10.0 uM.

The target in data set [8] is Steroid 5-alpha-reductase (Rattus norvegicus) (UniProt P24008+P31214). Kind of data set: Steroid 5α-Reductase Eurofins-Panlabs enzyme assay. More on the design: substrate with concentration. Conditions: Compound concentration 10.0 uM. Type of data set: protein assay.
The target in data set [9] is Protein phosphatase 3 catalytic subunit alpha (Homo sapiens) (UniProt Q08209). Kind of data set: Protein Serine/Threonine Phosphatase, Calcineurin, PP2B Eurofins-Panlabs enzyme assay. Conditions: Compound concentration 10.0 uM.
For data set [10], the target named is Coagulation factor VII (Homo sapiens) (UniProt P08709). Kind of data set: Peptidase, Factor VIIa Eurofins-Panlabs enzyme assay. On the set-up: substrate with concentration. Conditions: Compound concentration 10.0 uM.
Sequence of Coagulation factor VII (Homo sapiens) (P08709 61-212 limits assumed): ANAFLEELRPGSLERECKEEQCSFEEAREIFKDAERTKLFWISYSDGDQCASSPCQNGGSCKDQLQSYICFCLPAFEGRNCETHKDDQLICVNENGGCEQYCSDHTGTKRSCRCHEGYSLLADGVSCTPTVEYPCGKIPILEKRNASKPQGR
Sequence of Coagulation factor VII (Homo sapiens) (P08709 213-466 limits assumed): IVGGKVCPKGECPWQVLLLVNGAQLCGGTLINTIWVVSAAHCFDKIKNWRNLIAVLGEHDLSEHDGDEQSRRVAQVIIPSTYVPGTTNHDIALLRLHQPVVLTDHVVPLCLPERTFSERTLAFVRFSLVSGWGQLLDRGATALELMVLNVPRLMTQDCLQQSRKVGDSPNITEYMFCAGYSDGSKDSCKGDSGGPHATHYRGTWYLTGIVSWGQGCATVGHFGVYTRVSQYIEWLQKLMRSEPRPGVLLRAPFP
The target in data set [11] is Disintegrin and metalloproteinase domain-containing protein 17 (Homo sapiens) (UniProt P78536). Kind of data set: Peptidase, Tumor Necrosis Factor-alpha Converting Enzyme (TACE) Eurofins-Panlabs enzyme assay. Conditions: Compound concentration 10.0 uM. More on the design: substrate with concentration.
For data set [12], the target named is Cyclin-dependent kinase 1/cyclin B (Homo sapiens) (UniProt P06493+P14635+Q8WWL7+O95067). Kind of data set: Protein Serine/Threonine Kinase, cdk1/Cyclin B Eurofins-Panlabs enzyme assay. The following applies: Compound concentration 10.0 uM. Type of data set: protein-complex assay.
Data set [13] concerns the target Vasopressin V2 receptor (Homo sapiens) (UniProt P30518). Kind of data set: Inhibition of Vasopressin V2 at 10 µM in the Eurofins-Panlabs radioligand binding assay (Eurofins_assay_287610). More on the design: ligand concentration 4 nM. Conditions: Compound concentration 10.0 uM.
For data set [14], the target named is T2, Muscarinic acetylcholine receptor M2 (Homo sapiens) (UniProt P08172).
T2 sequence (whole entry): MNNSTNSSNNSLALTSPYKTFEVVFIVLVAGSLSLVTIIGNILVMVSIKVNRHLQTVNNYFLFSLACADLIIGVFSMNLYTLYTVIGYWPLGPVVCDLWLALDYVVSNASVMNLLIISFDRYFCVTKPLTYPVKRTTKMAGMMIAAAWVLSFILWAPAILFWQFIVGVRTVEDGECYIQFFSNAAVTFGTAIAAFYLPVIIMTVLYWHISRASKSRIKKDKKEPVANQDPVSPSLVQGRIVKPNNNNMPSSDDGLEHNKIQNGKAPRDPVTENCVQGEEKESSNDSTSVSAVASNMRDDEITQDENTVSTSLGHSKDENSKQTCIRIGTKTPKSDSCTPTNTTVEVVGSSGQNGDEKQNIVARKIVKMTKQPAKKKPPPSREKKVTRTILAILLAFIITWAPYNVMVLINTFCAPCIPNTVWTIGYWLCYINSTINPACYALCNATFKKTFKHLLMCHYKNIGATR
The following applies: Compound concentration 10.0 uM.

For a further data set, the target named is MAO-A (Homo sapiens, UniProt P21397). Kind of data set: Inhibition of Monoamine Oxidase MAO-A at compound concentration of 10.0 uM in the Eurofins-Panlabs enzyme assay (Eurofins_assay_140010). Conditions: recombinant human MAO-A expressed in insect Hi5 cells, probe Kynuramine, 50 uM, compound concentration 10 uM. More on the design: substrate with concentration 50 uM Kynuramine, incubation time 60 min, incubation temperature 37 C.

The next data set is filed under the species Rattus norvegicus. Kind of data set: Serotonin (5-Hydroxytryptamine) 5-HT2, Non-Selective Eurofins-Panlabs radioligand binding assay. Type of data set: protein assay. The following applies: Compound concentration 10.0 uM.
Data set [15] deals with Muscarinic acetylcholine receptor M4 (Homo sapiens) (UniProt P08173). Conditions: Compound concentration 10.0 uM.
Sequence of Muscarinic acetylcholine receptor M4 (Homo sapiens) (P08173 whole entry): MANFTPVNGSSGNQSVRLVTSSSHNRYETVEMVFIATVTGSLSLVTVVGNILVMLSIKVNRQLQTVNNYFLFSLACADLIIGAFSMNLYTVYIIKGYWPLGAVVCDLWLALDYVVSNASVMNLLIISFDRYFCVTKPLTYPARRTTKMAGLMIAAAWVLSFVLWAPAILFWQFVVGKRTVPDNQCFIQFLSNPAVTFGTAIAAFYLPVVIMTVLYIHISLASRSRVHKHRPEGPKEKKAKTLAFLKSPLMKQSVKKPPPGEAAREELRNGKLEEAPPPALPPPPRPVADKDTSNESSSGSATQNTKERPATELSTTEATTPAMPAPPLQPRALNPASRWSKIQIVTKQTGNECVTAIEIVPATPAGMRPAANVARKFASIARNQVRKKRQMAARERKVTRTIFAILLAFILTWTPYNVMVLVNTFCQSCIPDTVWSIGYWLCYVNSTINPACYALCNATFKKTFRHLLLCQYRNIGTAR
For data set [16], the target named is Delta-type opioid receptor (Homo sapiens) (UniProt P41143). The following applies: Compound concentration 10.0 uM.
Sequence of Delta-type opioid receptor (Homo sapiens) (P41143 whole entry): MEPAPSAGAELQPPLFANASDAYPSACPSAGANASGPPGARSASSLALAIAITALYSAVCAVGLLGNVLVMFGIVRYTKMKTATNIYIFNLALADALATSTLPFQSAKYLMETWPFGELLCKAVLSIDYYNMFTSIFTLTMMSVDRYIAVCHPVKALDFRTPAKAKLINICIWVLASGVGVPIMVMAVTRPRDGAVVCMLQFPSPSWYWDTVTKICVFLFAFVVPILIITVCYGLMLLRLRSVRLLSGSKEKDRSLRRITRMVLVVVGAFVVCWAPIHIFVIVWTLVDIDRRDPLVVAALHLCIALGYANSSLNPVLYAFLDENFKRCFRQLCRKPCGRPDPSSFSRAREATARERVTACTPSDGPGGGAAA
In data set [17] the target is Cannabinoid receptor 1 (Homo sapiens) (UniProt P21554). Kind of data set: Cannabinoid CB1 Eurofins-Panlabs radioligand binding assay. The following applies: Compound concentration 10.0 uM.
Sequence of Cannabinoid receptor 1 (Homo sapiens) (P21554 whole entry): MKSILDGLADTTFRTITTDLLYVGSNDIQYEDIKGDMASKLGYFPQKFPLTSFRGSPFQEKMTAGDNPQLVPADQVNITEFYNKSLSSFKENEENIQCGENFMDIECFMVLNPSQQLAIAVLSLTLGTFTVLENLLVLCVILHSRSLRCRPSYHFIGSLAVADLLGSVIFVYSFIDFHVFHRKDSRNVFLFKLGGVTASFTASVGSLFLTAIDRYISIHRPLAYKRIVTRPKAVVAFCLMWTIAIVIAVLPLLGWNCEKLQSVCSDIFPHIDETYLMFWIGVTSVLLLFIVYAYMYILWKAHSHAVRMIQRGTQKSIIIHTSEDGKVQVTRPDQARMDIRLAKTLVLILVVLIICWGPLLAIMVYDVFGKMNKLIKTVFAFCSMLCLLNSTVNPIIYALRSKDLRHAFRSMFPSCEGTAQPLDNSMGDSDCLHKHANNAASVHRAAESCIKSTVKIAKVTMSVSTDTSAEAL
Data set [18] deals with Neuromedin-K receptor (Homo sapiens) (UniProt P29371). Kind of data set: Tachykinin NK3 Eurofins-Panlabs radioligand binding assay. More on the design: ligand concentration 0.8 nM. Conditions: Compound concentration 10.0 uM.
Sequence of Neuromedin-K receptor (Homo sapiens) (P29371 whole entry): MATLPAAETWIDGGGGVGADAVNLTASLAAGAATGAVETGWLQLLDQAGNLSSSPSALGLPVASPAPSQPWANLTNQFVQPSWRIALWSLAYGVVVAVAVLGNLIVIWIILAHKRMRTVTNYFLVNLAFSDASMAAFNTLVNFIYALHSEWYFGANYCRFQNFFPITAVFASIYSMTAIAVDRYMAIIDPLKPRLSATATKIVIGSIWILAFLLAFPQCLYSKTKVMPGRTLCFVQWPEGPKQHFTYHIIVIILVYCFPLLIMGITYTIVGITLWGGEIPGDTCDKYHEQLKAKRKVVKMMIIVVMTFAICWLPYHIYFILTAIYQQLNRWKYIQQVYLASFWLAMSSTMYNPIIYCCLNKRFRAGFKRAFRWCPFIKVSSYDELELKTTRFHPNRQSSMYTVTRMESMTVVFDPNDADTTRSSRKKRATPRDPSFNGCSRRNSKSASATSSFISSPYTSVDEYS
The target in data set [19] is Sodium-dependent serotonin transporter (Homo sapiens) (UniProt P31645). Conditions: Compound concentration 10.0 uM.
Sequence of Sodium-dependent serotonin transporter (Homo sapiens) (P31645 whole entry, looked up): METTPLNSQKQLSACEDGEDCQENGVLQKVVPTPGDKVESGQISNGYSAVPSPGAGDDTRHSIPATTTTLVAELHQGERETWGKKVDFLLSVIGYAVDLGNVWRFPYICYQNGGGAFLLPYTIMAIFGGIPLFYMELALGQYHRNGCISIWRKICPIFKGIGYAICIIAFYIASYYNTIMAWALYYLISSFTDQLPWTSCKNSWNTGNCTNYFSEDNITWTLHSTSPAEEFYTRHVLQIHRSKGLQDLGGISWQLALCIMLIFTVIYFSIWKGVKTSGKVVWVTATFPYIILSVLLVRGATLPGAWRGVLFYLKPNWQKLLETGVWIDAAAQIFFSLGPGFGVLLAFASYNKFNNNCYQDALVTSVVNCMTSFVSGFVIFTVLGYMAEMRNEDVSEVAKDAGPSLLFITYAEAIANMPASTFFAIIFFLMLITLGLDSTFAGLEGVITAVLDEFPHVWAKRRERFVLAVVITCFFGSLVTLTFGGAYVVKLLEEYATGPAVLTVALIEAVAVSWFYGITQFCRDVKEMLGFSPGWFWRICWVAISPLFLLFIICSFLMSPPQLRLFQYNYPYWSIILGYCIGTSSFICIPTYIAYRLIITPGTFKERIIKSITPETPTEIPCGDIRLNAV

One may read the inhibition as the relative decrease from the control value, in per cent.

Sequence of 5-hydroxytryptamine receptor 7 (Homo sapiens) (P34969 whole entry): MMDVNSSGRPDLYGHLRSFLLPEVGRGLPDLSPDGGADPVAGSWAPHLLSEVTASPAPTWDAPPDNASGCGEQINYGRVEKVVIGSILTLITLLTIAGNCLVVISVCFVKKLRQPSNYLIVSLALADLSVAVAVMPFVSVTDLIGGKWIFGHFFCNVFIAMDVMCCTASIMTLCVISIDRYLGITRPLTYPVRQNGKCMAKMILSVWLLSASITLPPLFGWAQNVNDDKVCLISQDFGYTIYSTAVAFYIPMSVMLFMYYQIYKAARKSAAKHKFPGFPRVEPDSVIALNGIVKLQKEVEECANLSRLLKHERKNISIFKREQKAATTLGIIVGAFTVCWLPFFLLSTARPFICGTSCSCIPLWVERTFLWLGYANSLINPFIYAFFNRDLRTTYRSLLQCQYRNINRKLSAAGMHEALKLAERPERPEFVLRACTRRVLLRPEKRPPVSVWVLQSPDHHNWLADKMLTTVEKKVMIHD
Sequence of Matrilysin (Homo sapiens) (P09237 whole entry): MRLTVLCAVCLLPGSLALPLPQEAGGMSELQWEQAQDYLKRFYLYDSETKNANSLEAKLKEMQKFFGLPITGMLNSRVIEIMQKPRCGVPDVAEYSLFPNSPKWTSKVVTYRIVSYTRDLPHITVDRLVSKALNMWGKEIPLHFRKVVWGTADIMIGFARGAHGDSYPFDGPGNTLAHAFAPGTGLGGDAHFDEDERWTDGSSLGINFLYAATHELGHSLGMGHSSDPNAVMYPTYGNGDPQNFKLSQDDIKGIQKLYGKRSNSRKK

Regarding `Cc1cc(OC2CCS(=O)(=O)CC2)cc(C)c1-c1cccc(COc2ccc(CCC(=O)O)c(F)c2)c1`, the inhibition is 1% in data set [1]; 85% in data set [2]; 13.3% in data set [3]; 5% in data set [4]; 2.66% in data set [5]; 61% in data set [6]. For the same compound, the inhibition in the data set listed under Canis lupus familiaris is 4%; in data set [7], -3%; in data set [8], 19%; in [9], 10%; in data set [10], -10%; in data set [11] it was 36%. The inhibition in data set [12] was 14%; in data set [13], 0%; in data set [14], 2.31%. The inhibition at 60 min, 10 µM is reported as 6% (not active) at MAO-B and 7% (not active) at MAO-A.

For `Cc1cc(OC2CCS(=O)(=O)CC2)cc(C)c1-c1cccc(COc2ccc(C(=O)O)c(F)c2)c1`, the inhibition in the data set filed under Rattus norvegicus is -3%; in data set [15] it was -4.72%; in data set [16] it was -7.07%; in [17], -6%; in data set [18], 10%; in [19], 2%.

The values are drawn from ChEMBL document CHEMBL5058642, “Data for DCP probe TP-051” (2022).
